Activity calls are given as the source filed them.

The target of one assay is Nonstructural protein 1 (Influenza A virus, UniProt Q194T2). The format is functional, Influenza A virus (A/California/07/2009(H1N1)).
Assay [1] deals with T1, Alkaline phosphatase, tissue-nonspecific isozyme (Homo sapiens, UniProt P05186).
T1 sequence (P05186 whole entry): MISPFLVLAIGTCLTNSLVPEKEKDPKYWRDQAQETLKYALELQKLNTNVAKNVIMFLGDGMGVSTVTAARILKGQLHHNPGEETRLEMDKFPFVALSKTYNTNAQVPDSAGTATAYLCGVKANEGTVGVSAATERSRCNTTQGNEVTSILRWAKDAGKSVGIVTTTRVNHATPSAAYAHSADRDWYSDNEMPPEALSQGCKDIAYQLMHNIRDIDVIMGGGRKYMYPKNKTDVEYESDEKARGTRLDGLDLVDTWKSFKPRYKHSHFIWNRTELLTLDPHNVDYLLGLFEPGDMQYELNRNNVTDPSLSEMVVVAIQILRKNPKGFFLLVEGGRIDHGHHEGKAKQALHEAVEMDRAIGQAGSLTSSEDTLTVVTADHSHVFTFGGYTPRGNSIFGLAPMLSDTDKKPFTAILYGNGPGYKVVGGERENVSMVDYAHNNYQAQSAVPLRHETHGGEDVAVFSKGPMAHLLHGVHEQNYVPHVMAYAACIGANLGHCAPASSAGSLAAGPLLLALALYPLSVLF
In words: TNAP enzyme inhibition by screening hits, dose response, selectivity assay for mouse IAP inhibitor project, biochemical, human TNAP, uHTS hits (AID 488906). It counts as functional.

The target in assay [2] is Intestinal-type alkaline phosphatase (Homo sapiens, UniProt P09923). In words: inhibition of human intestinal alkaline phosphatase – biochemical, dose response (AID 488876). The format is functional.
Intestinal-type alkaline phosphatase (Homo sapiens, UniProt P09923), sequence (P09923 whole entry): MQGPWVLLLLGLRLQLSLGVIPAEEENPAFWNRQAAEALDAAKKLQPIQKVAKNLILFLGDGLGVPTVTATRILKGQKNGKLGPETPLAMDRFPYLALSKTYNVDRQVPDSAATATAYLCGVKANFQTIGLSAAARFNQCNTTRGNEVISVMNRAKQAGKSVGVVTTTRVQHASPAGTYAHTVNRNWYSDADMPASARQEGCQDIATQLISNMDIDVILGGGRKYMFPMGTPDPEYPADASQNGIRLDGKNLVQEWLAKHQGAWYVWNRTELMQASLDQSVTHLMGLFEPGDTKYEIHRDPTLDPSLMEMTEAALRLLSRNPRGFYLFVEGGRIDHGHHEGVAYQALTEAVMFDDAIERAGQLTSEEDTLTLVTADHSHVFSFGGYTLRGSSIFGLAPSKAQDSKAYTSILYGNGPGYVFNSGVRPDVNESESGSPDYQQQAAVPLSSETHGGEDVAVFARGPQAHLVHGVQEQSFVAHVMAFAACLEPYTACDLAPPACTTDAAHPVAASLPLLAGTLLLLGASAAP
In assay [3] the target is Intestinal-type alkaline phosphatase (Mus musculus, UniProt P24822). In words: PubChem AID 488785. The format is functional.
Intestinal-type alkaline phosphatase (Mus musculus, UniProt P24822), sequence (P24822 whole entry): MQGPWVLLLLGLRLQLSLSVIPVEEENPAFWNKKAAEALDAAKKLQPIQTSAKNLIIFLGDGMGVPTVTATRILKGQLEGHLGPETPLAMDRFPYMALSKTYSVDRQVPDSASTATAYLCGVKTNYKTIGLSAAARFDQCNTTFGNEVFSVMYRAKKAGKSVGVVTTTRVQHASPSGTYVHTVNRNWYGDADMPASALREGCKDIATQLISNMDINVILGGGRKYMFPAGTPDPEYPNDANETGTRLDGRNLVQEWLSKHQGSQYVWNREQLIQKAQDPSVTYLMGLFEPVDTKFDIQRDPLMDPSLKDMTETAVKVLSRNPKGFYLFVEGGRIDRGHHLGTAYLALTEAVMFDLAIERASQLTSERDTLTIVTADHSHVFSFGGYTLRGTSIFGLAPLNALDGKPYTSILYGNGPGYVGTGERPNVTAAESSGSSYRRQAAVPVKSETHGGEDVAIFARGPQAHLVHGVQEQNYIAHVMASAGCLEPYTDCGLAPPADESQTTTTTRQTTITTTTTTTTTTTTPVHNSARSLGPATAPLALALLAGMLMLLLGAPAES
Assay [4] addresses T2, DNA dC->dU-editing enzyme APOBEC-3G (Homo sapiens, UniProt Q9HC16). It counts as functional.
Assay [5] addresses T3, DNA dC->dU-editing enzyme APOBEC-3A (Homo sapiens, UniProt P31941). In words: Dose Response confirmation of small molecule APOBEC3A DNA Deaminase Inhibitors via a fluorescence-based single-stranded DNA deaminase assay. [Related pubchem assays (depositor defined):AID493011, AID493024]. It counts as functional.
Another assay has as its target CAAX prenyl protease 2 (Saccharomyces cerevisiae S288c, UniProt Q03530). The format is biochemical.
In the next assay the target is T4, Coagulation factor XII (Homo sapiens, UniProt P00748).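 Further: activated factor XIIa alpha cleaving a fluorogenic AMC peptide substrate; inhibitor potency from loss of enzyme activity.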
T4 sequence (P00748 whole entry): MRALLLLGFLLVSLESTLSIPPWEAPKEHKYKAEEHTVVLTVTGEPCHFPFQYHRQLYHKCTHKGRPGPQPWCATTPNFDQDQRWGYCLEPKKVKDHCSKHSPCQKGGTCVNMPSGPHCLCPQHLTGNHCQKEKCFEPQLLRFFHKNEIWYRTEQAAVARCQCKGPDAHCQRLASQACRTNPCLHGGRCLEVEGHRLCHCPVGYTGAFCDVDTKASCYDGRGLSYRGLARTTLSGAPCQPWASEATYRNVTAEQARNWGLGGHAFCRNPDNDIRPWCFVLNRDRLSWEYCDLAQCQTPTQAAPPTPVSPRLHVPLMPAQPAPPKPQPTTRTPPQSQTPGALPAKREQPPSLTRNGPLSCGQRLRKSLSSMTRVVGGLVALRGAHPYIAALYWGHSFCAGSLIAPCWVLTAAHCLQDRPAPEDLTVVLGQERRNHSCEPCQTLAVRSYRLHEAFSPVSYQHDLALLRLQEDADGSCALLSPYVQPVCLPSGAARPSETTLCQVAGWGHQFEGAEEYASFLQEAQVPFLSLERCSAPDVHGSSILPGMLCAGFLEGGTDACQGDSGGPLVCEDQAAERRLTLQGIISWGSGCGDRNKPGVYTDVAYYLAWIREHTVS
The format is functional.

Assay [6] concerns the target Peroxisome proliferator-activated receptor gamma/Nuclear receptor coactivator 2 (Homo sapiens, UniProt P37231). In words: TR-FRET dose response biochemical High Throughput Screening assay for agonists of the steroid receptor coactivator 2 (SRC-2) recruitment by the peroxisome proliferator-activated receptor gamma (PPAR gamma): non-selective agonists. [Related pubchem assays: 1297, 1032 ]. It counts as functional.

Assay [7] has as its target Peroxisome proliferator-activated receptor gamma/Nuclear receptor coactivator 3 (Homo sapiens, UniProt P37231). In words: TR-FRET dose response biochemical High Throughput Screening assay for agonists of the steroid receptor coactivator 3 (SRC-3) recruitment by the peroxisome proliferator-activated receptor gamma (PPAR gamma): non-selective agonists. [Related pubchem assays: 1301 (Confirmation screen.), 1048 (Primary screen.)]. It counts as functional.

Assay [8] concerns the target T2, DNA dC->dU-editing enzyme APOBEC-3G. In words: Dose Response confirmation of small molecule APOBEC3G DNA Deaminase Inhibitors via a fluorescence-based single-stranded DNA deaminase assay. [Related pubchem assays (depositor defined):AID493012, AID493028]. It counts as functional.
The target of assay [9] is FAD-linked sulfhydryl oxidase ALR (Homo sapiens, UniProt P55789). In words: ALR-catalysed DTT oxidation blockers – biochemical, H2O2 detection, luminescence, cherry-pick, dose response (AID 493248).
The target of assay [10] is Peroxisome proliferator-activated receptor gamma/Nuclear receptor coactivator 1 (Homo sapiens, UniProt P37231). In words: TR-FRET dose response biochemical High Throughput Screening assay for agonists of the steroid receptor coactivator 1 (SRC-1) recruitment by the peroxisome proliferator-activated receptor gamma (PPAR gamma): non-selective agonists. [Related pubchem assays (depositor defined):AID1300, AID1808, AID504735, AID631]. It counts as protein assay.

Assay [11] has as its target T3, DNA dC->dU-editing enzyme APOBEC-3A. In words: A3A deaminase inhibition for selectivity – biochemical, dose response (AID 504722). It counts as functional.
Assay [12] in a line: Counterscreen for AddAB inhibitors: absorbance-based bacterial cell-based high throughput dose response assay for inhibitors of bacterial viability. [Related pubchem assays (depositor defined):AID435030, AID449728, AID449731, AID488942, AID488955, AID488956]. It counts as functional.
The next assay concerns the target Exodeoxyribonuclease V (Escherichia coli (strain K12), UniProt P04993+P07648+P08394). In words: RecBCD inhibition via phage-restricted bacterial growth – absorbance, V66 E. coli, mutant T4 phage, counter-screen for AddAB inhibitor project, dose response (AID 492957). The format is functional, cell-based, Escherichia coli str. K-12 substr. MG1655.
The next assay deals with T5, Estrogen receptor (Homo sapiens, UniProt P03372).
T5 sequence (P03372 whole entry): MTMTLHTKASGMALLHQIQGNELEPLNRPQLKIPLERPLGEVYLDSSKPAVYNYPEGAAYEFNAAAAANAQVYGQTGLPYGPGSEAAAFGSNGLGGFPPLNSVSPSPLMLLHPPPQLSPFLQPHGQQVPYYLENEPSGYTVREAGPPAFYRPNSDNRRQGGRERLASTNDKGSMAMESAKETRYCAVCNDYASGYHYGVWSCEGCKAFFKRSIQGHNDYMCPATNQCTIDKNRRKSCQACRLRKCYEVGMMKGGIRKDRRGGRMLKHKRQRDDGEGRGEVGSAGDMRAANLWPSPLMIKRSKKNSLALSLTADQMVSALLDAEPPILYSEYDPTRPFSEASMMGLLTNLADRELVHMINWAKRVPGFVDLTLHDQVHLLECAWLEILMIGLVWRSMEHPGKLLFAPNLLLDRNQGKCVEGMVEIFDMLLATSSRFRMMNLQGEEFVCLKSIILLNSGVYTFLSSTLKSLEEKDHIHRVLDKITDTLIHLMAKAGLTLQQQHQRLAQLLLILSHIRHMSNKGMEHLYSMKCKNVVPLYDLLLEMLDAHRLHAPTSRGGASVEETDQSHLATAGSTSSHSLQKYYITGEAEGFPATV

Assay [13] is described as follows: cells. It counts as functional, cell-based.
Assay [14] can be described thus: cells. It counts as functional, cell-based. This is another data set of the same source.
For assay [15], the target named is T6, Ubiquitin-conjugating enzyme E2 N (Homo sapiens, UniProt P61088).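 Further: Dose-response confirmation in a TR-FRET assay detecting UBC13-driven polyubiquitin chain formation, inhibition measured.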
T6 sequence (P61088 whole entry): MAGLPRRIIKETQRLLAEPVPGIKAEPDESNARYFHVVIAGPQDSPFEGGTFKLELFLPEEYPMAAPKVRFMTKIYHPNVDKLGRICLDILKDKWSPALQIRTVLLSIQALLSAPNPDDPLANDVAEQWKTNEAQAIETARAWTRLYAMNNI
The format is functional.

Assay [16] has as its system Streptococcus sp. 'group A'. In words: Streptococcus pyogenes SK(-)GAS viability under kanamycin – luminescence, BacTiterGlo, confirmation, counter-screen for streptokinase expression inhibitor project, dose response (AID 1900). The format is functional, organism-based.
The next assay has as its system Streptococcus. In words: GAS UMAA2166 growth inhibition – luminescence, BacTiterGlo, counter-screen for streptokinase expression inhibitor project, dose response (AID 1915).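 Further: potency for reduction of bacterial viability or growth.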 The format is functional, organism-based.
In a further assay the target is T7, Streptokinase A (Streptococcus pyogenes serotype M1, UniProt P10520).
T7 sequence (P10520 whole entry): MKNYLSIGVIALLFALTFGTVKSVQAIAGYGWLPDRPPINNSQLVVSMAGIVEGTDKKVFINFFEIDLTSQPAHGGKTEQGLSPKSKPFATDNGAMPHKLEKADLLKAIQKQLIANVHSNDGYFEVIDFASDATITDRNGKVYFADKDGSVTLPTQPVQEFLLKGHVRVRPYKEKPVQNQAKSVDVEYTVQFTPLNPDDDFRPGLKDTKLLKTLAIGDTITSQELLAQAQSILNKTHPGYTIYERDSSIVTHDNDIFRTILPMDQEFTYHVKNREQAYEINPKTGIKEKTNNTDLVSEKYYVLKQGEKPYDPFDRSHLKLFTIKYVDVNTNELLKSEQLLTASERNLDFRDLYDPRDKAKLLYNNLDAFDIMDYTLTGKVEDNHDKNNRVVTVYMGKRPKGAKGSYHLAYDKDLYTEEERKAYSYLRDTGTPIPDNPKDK
In words: viability-normalized secreted streptokinase activity reduction – plasminogen activation absorbance, OD405, dose response (AID 1914).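 Further: secreted streptokinase activity via plasminogen activation per viability signal from cell pellet.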 It counts as functional, Streptococcus pyogenes M1 GAS.

A short description of assay [17]: Luminescence Cell-Based Dose Retest to Confirm Inhibitors of Cancer Stem Cells. [Related pubchem assays (depositor defined):AID2717, AID2721]. It counts as functional. The note with it: Homo sapiens.

T2 sequence (Q9HC16 whole entry): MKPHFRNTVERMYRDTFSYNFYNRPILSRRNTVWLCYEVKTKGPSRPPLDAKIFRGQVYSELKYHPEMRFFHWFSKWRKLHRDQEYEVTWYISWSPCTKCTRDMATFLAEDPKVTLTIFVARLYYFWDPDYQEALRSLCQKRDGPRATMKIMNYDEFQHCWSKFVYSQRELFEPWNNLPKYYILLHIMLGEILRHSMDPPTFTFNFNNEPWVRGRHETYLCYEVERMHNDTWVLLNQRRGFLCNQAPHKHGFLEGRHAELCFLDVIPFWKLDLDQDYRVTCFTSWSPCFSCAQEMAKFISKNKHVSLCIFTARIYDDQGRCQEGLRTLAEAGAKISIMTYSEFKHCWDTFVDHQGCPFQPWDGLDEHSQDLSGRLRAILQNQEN
T3 sequence (P31941 whole entry): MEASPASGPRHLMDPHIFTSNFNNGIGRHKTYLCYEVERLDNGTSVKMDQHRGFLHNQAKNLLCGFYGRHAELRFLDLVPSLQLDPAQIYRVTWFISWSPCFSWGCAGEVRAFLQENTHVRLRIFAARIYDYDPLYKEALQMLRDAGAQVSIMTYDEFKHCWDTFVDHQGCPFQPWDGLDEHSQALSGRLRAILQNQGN
CAAX prenyl protease 2, sequence (Q03530 whole entry): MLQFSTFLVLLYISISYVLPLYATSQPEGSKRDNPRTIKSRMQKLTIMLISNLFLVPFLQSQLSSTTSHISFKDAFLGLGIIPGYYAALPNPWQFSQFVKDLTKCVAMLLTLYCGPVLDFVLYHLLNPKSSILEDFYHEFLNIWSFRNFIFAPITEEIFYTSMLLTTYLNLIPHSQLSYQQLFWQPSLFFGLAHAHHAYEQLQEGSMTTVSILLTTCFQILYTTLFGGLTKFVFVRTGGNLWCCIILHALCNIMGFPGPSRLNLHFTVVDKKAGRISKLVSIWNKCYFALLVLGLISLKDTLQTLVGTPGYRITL
Exodeoxyribonuclease V, sequence (P04993 whole entry): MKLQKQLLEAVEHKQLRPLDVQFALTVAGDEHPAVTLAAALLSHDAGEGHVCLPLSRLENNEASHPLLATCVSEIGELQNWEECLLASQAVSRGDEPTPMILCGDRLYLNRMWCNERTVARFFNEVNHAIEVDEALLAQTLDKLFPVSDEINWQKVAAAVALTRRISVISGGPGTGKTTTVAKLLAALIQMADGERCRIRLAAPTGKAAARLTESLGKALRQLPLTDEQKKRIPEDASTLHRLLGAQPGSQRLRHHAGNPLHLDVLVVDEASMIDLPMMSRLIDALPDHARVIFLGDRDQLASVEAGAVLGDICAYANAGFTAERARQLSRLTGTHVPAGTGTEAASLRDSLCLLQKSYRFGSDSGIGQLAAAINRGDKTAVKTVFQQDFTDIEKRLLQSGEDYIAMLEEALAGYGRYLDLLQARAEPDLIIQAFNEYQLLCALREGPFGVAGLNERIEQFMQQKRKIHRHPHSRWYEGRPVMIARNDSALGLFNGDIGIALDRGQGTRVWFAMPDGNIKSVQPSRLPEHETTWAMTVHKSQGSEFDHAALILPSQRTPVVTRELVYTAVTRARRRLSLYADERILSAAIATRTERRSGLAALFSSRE
Exodeoxyribonuclease V, sequence (P07648 whole entry): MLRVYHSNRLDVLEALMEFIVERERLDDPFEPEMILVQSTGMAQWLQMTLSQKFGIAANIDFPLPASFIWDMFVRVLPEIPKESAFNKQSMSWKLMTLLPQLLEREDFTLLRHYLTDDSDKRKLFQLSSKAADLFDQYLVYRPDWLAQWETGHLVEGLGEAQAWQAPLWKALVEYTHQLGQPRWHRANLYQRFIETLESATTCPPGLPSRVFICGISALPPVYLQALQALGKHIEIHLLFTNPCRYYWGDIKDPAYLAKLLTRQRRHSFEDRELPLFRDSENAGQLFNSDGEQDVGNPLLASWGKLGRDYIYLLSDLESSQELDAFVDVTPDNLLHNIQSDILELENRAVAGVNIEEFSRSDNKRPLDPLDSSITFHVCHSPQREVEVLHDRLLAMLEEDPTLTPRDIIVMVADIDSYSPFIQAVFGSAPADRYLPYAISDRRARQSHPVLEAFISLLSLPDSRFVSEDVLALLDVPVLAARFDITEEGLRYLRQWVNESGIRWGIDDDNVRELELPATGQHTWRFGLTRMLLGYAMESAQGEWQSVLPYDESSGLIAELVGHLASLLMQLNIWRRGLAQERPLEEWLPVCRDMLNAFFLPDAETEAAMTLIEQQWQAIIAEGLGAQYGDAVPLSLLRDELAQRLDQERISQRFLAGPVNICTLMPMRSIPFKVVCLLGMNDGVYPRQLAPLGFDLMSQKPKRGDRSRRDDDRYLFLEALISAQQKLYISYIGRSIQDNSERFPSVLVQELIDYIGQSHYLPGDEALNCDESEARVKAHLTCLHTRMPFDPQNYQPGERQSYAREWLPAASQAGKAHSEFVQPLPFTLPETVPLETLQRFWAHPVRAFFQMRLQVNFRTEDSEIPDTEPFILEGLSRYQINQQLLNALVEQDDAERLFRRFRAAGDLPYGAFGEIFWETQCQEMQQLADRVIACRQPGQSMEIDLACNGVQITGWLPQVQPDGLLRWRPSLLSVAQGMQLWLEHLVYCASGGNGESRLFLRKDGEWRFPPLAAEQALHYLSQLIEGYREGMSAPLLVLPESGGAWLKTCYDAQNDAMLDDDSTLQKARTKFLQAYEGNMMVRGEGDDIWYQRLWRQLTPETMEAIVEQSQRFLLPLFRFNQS
Exodeoxyribonuclease V, sequence (P08394 whole entry): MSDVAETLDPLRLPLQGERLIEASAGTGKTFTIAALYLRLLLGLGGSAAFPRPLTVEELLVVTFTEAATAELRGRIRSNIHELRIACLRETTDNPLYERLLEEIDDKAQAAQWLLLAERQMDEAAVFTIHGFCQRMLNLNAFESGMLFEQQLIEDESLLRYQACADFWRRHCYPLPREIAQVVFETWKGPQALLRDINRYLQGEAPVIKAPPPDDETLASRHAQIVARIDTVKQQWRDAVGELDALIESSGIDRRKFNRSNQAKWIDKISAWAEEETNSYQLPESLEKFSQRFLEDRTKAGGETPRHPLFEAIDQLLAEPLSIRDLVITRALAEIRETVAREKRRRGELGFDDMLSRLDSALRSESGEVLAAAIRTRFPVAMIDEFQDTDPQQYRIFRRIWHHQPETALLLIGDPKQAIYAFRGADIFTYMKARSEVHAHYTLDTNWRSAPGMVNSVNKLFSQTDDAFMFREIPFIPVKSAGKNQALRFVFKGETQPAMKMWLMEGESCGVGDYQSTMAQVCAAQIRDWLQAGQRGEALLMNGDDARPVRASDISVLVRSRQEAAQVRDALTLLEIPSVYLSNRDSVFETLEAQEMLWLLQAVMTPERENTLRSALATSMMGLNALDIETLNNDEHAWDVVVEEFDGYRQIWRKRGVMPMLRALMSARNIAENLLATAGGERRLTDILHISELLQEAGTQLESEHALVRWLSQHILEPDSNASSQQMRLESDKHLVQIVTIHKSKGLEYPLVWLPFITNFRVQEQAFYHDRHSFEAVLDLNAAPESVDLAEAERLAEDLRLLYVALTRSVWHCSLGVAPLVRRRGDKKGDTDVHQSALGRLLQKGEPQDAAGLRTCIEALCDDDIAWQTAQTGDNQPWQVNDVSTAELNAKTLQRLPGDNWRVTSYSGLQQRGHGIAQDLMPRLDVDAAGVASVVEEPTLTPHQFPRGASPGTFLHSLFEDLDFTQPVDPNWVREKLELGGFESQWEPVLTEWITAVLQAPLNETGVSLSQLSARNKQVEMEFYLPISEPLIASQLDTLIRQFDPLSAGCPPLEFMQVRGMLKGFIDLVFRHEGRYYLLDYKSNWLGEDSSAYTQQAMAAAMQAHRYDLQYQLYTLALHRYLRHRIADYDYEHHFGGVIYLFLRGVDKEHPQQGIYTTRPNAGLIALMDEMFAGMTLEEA

Consider `COCc1ccc(CN2CCC(C(=O)Nc3cccc(-c4cccc(Cl)c4)c3)CC2)o1`, for which the IC50 on Nonstructural protein 1 is > 100 µM (active); in [1], 17.8 µM (active); in [2], > 100 µM (inactive); in assay [3], 2.01 µM (active).
For the compound `CCn1c(C)cc(/C=C2\NC(=O)N(CC(=O)Nc3ccc(F)cc3)C2=O)c1C`, the IC50 is 2.2 µM (active) in assay [4] and 1.24 µM (active) in [5].
Take `Nc1c(Cl)cc(C2=NCCn3nc4cc(C(F)(F)F)ccc4c32)cc1Cl`: at CAAX prenyl protease 2, the half-maximal activity concentration (AC50) was 5.28 µM (active).
On to `COc1cc(COCC(O)CN2CCOCC2)cc(OC)c1OC` (stereo not given), for which the IC50 at Coagulation factor XII is > 50 µM (inactive).
For the compound `Cc1cccc(-n2c(S)nnc2-c2ccco2)c1`, the half-maximal effective concentration (EC50) in assay [6] is > 79.4 µM (not active); in assay [7], > 79.4 µM (not active); in assay [10] it was > 79.4 µM (inactive). For the same compound, the IC50 in assay [8] is 6.36 µM (active); in assay [11], > 100 µM (inactive). Also, in assay [9], the AC50 was 5.51 µM (active).
For the compound `CCCCOc1ccc(Cc2cnc(N)nc2N)cc1`, the IC50 in assay [12] was 85.2 µM (inactive); at Exodeoxyribonuclease V it was 114 µM (inactive).
As to `Cc1ccc(-c2nnc3n2N=C(c2ccc(Br)cc2)CS3)cc1`, the IC50 on Estrogen receptor is 42.3 µM (not active); on Coagulation factor XII, > 50 µM (inactive).
`COc1cc2ccccc2cc1C(=O)N(CCN(C)C)c1nc2ccc(C)cc2s1`: the concentration at half-maximal activity (AC50) at CAAX prenyl protease 2 is 11.3 µM (active).
With `Sc1nnc(-c2ccco2)n1/N=C/c1cccs1`, the EC50 in “cells [13]” and in “cells [14]” was > 350 µM (not active) each time. Moreover, the IC50 in assay [8] is 3.28 µM (active); in assay [11], > 100 µM (inactive).
For the compound `Cc1ccc2c(c1)C1C[N+](C)(CC(=O)c3ccc(Cl)cc3Cl)CCC1N2C(=O)c1ccc(F)cc1` (stereo not given), the half-inhibitory concentration (IC50) is 2.88 µM (active) in assay [4], 2.65 µM (active) in assay [5] and > 20 µM (inactive) in assay [15].
Consider `S=C(NCCC(c1ccccc1)c1ccccc1)Nc1cccc(Cl)c1`, for which the half-maximal effective concentration (EC50) in assay [16] was 3.81 µM (active); in the assay on Streptococcus, 10.5 µM (active); on Streptokinase A, 15.3 µM (active). Moreover, the values for the IC50 in [1], in [2] and in assay [3] were 22.9 µM (active), 57.7 µM (active) and 6.96 µM (active), respectively. The AC50 in [17] is 2.27 µM (active).
For `CCOc1ccc(NC(S)=NCc2nc3ccccc3[nH]2)cc1`, the IC50 (in [12]; on Exodeoxyribonuclease V) was > 119 µM (inactive) in each case.

Source of the values: ChEMBL document CHEMBL1201862, “PubChem BioAssay data set” (2004).
